Measured values reported in ChEMBL document CHEMBL3046007, “Isonicotinic acid hydrazide derivatives: synthesis, antimicrobial activity, and QSAR studies” (Med Chem Res, 2012).
≈ marks a conversion by molar mass, not a printed value.

System: Aspergillus niger
Assay: Antimicrobial activity against Aspergillus niger after 7 days by serial dilution method
Type: functional
Details: not given

Structure (SMILES) | -logMIC
O=C(NNC(=O)c1ccc(Cl)cc1)c1ccncc1 | 1.74
CC(Cl)C(=O)NNC(=O)c1ccncc1 (stereo not given) | 2.26
O=C(N/N=C/c1c[nH]c2ccccc12)c1ccncc1 | 2.32
COc1cc(/C=N/N(C(=O)c2ccccc2)C(=O)c2ccncc2)ccc1O | 2.48
CCOc1cc(/C=N/N(C(=O)c2ccccc2)C(=O)c2ccncc2)ccc1O | 2.19

System: Candida albicans
Assay: Antimicrobial activity against Candida albicans after 48 hr by serial dilution method
Type: functional
Details: not given

Structure (SMILES) | -logMIC
O=C(NNC(=O)c1ccc(Cl)cc1)c1ccncc1 | 2.64
CC(Cl)C(=O)NNC(=O)c1ccncc1 (stereo not given) | 2.26
O=C(N/N=C/c1c[nH]c2ccccc12)c1ccncc1 | 2.63
COc1cc(/C=N/N(C(=O)c2ccccc2)C(=O)c2ccncc2)ccc1O | 3.08
CCOc1cc(/C=N/N(C(=O)c2ccccc2)C(=O)c2ccncc2)ccc1O | 2.79

System: Escherichia coli
Assay: Antimicrobial activity against Escherichia coli after 24 hr by serial dilution method
Type: functional
Details: not given

Structure (SMILES) | -logMIC
O=C(NNC(=O)c1ccc(Cl)cc1)c1ccncc1 | 1.74
CC(Cl)C(=O)NNC(=O)c1ccncc1 (stereo not given) | 2.26
O=C(N/N=C/c1c[nH]c2ccccc12)c1ccncc1 | 2.02
COc1cc(/C=N/N(C(=O)c2ccccc2)C(=O)c2ccncc2)ccc1O | 2.48
CCOc1cc(/C=N/N(C(=O)c2ccccc2)C(=O)c2ccncc2)ccc1O | 2.49

System: Staphylococcus aureus
Assay: Antimicrobial activity against Staphylococcus aureus after 24 hr by serial dilution method
Type: functional
Details: not given

Structure (SMILES) | -logMIC
O=C(NNC(=O)c1ccc(Cl)cc1)c1ccncc1 | 2.34
CC(Cl)C(=O)NNC(=O)c1ccncc1 (stereo not given) | 2.26
O=C(N/N=C/c1c[nH]c2ccccc12)c1ccncc1 | 2.02
COc1cc(/C=N/N(C(=O)c2ccccc2)C(=O)c2ccncc2)ccc1O | 2.48
CCOc1cc(/C=N/N(C(=O)c2ccccc2)C(=O)c2ccncc2)ccc1O | 2.19

System: Bacillus subtilis
Assay: Antimicrobial activity against Bacillus subtilis after 24 hr by serial dilution method
Type: functional
Details: not given

Structure (SMILES) | -logMIC
O=C(NNC(=O)c1ccc(Cl)cc1)c1ccncc1 | 2.34
CC(Cl)C(=O)NNC(=O)c1ccncc1 (stereo not given) | 1.96
O=C(N/N=C/c1c[nH]c2ccccc12)c1ccncc1 | 2.02
COc1cc(/C=N/N(C(=O)c2ccccc2)C(=O)c2ccncc2)ccc1O | 2.18
CCOc1cc(/C=N/N(C(=O)c2ccccc2)C(=O)c2ccncc2)ccc1O | 2.19

System: not listed separately
Assay: Cytotoxicity against Chlorocebus aethiops (African green monkey) Vero cells assessed as alteration in cell morphology
Type: cell-based
Details: chlorocebus sabaeus

Structure (SMILES) | MCC [µg/mL]
O=C(N/N=C/c1c[nH]c2ccccc12)c1ccncc1 | > 100
COc1cc(/C=N/N(C(=O)c2ccccc2)C(=O)c2ccncc2)ccc1O | ≥ 100
CCOc1cc(/C=N/N(C(=O)c2ccccc2)C(=O)c2ccncc2)ccc1O | > 100

System: Punta Toro virus
Assay: Antiviral activity against Punta Toro virus infected Vero cells assessed as inhibition of virus-induced cytopathicity
Type: functional, organism-based
Details: not given

Structure (SMILES) | EC50 [µg/mL]
O=C(N/N=C/c1c[nH]c2ccccc12)c1ccncc1 | > 100
COc1cc(/C=N/N(C(=O)c2ccccc2)C(=O)c2ccncc2)ccc1O | > 100
CCOc1cc(/C=N/N(C(=O)c2ccccc2)C(=O)c2ccncc2)ccc1O | > 100

System: Coxsackievirus B4
Assay: Antiviral activity against Human coxsackievirus B4 infected Vero cells assessed as inhibition of virus-induced cytopathicity
Type: functional, organism-based
Details: Enterovirus B

Structure (SMILES) | EC50 [µg/mL]
O=C(N/N=C/c1c[nH]c2ccccc12)c1ccncc1 | 45 (≈ 170 µM)
COc1cc(/C=N/N(C(=O)c2ccccc2)C(=O)c2ccncc2)ccc1O | > 100
CCOc1cc(/C=N/N(C(=O)c2ccccc2)C(=O)c2ccncc2)ccc1O | > 100

System: Sindbis virus
Assay: Antiviral activity against Sindbis virus infected Vero cells assessed as inhibition of virus-induced cytopathicity
Type: functional, organism-based
Details: not given

Structure (SMILES) | EC50 [µg/mL]
O=C(N/N=C/c1c[nH]c2ccccc12)c1ccncc1 | > 100
COc1cc(/C=N/N(C(=O)c2ccccc2)C(=O)c2ccncc2)ccc1O | > 100
CCOc1cc(/C=N/N(C(=O)c2ccccc2)C(=O)c2ccncc2)ccc1O | > 100

System: Mammalian orthoreovirus 1
Assay: Antiviral activity against Mammalian orthoreovirus 1 infected Vero cells assessed as inhibition of virus-induced cytopathicity
Type: functional, organism-based
Details: Mammalian orthoreovirus 1, Vero

Structure (SMILES) | EC50 [µg/mL]
O=C(N/N=C/c1c[nH]c2ccccc12)c1ccncc1 | 2.4 (≈ 9.08 µM)
COc1cc(/C=N/N(C(=O)c2ccccc2)C(=O)c2ccncc2)ccc1O | > 100
CCOc1cc(/C=N/N(C(=O)c2ccccc2)C(=O)c2ccncc2)ccc1O | > 100

System: Human respirovirus 3
Assay: Antiviral activity against Human parainfluenza virus 3 infected Vero cells assessed as inhibition of virus-induced cytopathicity
Type: functional, organism-based
Details: Human respirovirus 3, Vero

Structure (SMILES) | EC50 [µg/mL]
O=C(N/N=C/c1c[nH]c2ccccc12)c1ccncc1 | > 100
COc1cc(/C=N/N(C(=O)c2ccccc2)C(=O)c2ccncc2)ccc1O | > 100
CCOc1cc(/C=N/N(C(=O)c2ccccc2)C(=O)c2ccncc2)ccc1O | > 100

System: Respiratory syncytial virus
Assay: Antiviral activity against Respiratory syncytial virus infected human HeLa cells assessed as inhibition of virus-induced cytopathicity
Type: functional, organism-based
Details: not given

Structure (SMILES) | EC50 [µg/mL]
O=C(N/N=C/c1c[nH]c2ccccc12)c1ccncc1 | > 100
COc1cc(/C=N/N(C(=O)c2ccccc2)C(=O)c2ccncc2)ccc1O | > 20
CCOc1cc(/C=N/N(C(=O)c2ccccc2)C(=O)c2ccncc2)ccc1O | > 100

System: Coxsackievirus B4
Assay: Antiviral activity against Human coxsackievirus B4 infected human HeLa cells assessed as inhibition of virus-induced cytopathicity
Type: functional, organism-based
Details: Enterovirus B

Structure (SMILES) | EC50 [µg/mL]
O=C(N/N=C/c1c[nH]c2ccccc12)c1ccncc1 | > 100
COc1cc(/C=N/N(C(=O)c2ccccc2)C(=O)c2ccncc2)ccc1O | > 20
CCOc1cc(/C=N/N(C(=O)c2ccccc2)C(=O)c2ccncc2)ccc1O | > 100

System: Vesicular stomatitis virus
Assay: Antiviral activity against Vesicular stomatitis virus infected human HeLa cells assessed as inhibition of virus-induced cytopathicity
Type: functional, organism-based
Details: not given

Structure (SMILES) | EC50 [µg/mL]
O=C(N/N=C/c1c[nH]c2ccccc12)c1ccncc1 | > 100
COc1cc(/C=N/N(C(=O)c2ccccc2)C(=O)c2ccncc2)ccc1O | > 20
CCOc1cc(/C=N/N(C(=O)c2ccccc2)C(=O)c2ccncc2)ccc1O | > 100

System: not listed separately
Assay: Cytotoxicity against Homo sapiens (human) HeLa cells
Type: cell-based
Details: not given

Structure (SMILES) | MCC [µg/mL]
O=C(N/N=C/c1c[nH]c2ccccc12)c1ccncc1 | ≥ 100
COc1cc(/C=N/N(C(=O)c2ccccc2)C(=O)c2ccncc2)ccc1O | 100
CCOc1cc(/C=N/N(C(=O)c2ccccc2)C(=O)c2ccncc2)ccc1O | > 100

System: not listed separately
Assay: Cytotoxicity against Homo sapiens (human) HEL cells
Type: cell-based
Details: not given

Structure (SMILES) | MCC [µg/mL]
O=C(N/N=C/c1c[nH]c2ccccc12)c1ccncc1 | > 100
COc1cc(/C=N/N(C(=O)c2ccccc2)C(=O)c2ccncc2)ccc1O | > 100
CCOc1cc(/C=N/N(C(=O)c2ccccc2)C(=O)c2ccncc2)ccc1O | > 100

System: Human alphaherpesvirus 1
Assay: Antiviral activity against TK(-) aciclovir-resistant Human herpesvirus 1 strain KOS infected in human HEL cells assessed as inhibition of virus-induced cytopathicity
Type: functional, organism-based
Details: Human alphaherpesvirus 1, KOS

Structure (SMILES) | EC50 [µg/mL]
O=C(N/N=C/c1c[nH]c2ccccc12)c1ccncc1 | > 100
COc1cc(/C=N/N(C(=O)c2ccccc2)C(=O)c2ccncc2)ccc1O | > 100
CCOc1cc(/C=N/N(C(=O)c2ccccc2)C(=O)c2ccncc2)ccc1O | > 100

System: Vaccinia virus
Assay: Antiviral activity against Vaccinia virus infected human HEL cells assessed as inhibition of virus-induced cytopathicity
Type: functional, organism-based
Details: Orthopoxvirus vaccinia

Structure (SMILES) | EC50 [µg/mL]
O=C(N/N=C/c1c[nH]c2ccccc12)c1ccncc1 | > 100
COc1cc(/C=N/N(C(=O)c2ccccc2)C(=O)c2ccncc2)ccc1O | > 100
CCOc1cc(/C=N/N(C(=O)c2ccccc2)C(=O)c2ccncc2)ccc1O | > 100

System: Human alphaherpesvirus 2
Assay: Antiviral activity against Human herpesvirus 2 strain G infected human HEL cells assessed as inhibition of virus-induced cytopathicity
Type: functional, organism-based
Details: Human alphaherpesvirus 2, strain G

Structure (SMILES) | EC50 [µg/mL]
O=C(N/N=C/c1c[nH]c2ccccc12)c1ccncc1 | > 100
COc1cc(/C=N/N(C(=O)c2ccccc2)C(=O)c2ccncc2)ccc1O | > 100
CCOc1cc(/C=N/N(C(=O)c2ccccc2)C(=O)c2ccncc2)ccc1O | > 100

System: Human alphaherpesvirus 1
Assay: Antiviral activity against Human herpesvirus 1 strain KOS infected in human HEL cells assessed as inhibition of virus-induced cytopathicity
Type: functional, organism-based
Details: Human alphaherpesvirus 1, KOS

Structure (SMILES) | EC50 [µg/mL]
O=C(N/N=C/c1c[nH]c2ccccc12)c1ccncc1 | > 100
COc1cc(/C=N/N(C(=O)c2ccccc2)C(=O)c2ccncc2)ccc1O | > 100
CCOc1cc(/C=N/N(C(=O)c2ccccc2)C(=O)c2ccncc2)ccc1O | > 100

System: not listed separately
Assay: Cytotoxicity against Homo sapiens (human) MT4 cells
Type: cell-based
Details: not given

Structure (SMILES) | CC50 [µg/mL]
O=C(NNC(=O)c1ccc(Cl)cc1)c1ccncc1 | > 120
CC(Cl)C(=O)NNC(=O)c1ccncc1 (stereo not given) | 77.5 (≈ 340 µM)
O=C(N/N=C/c1c[nH]c2ccccc12)c1ccncc1 | 95 (≈ 359 µM)
COc1cc(/C=N/N(C(=O)c2ccccc2)C(=O)c2ccncc2)ccc1O | 105 (≈ 280 µM)
CCOc1cc(/C=N/N(C(=O)c2ccccc2)C(=O)c2ccncc2)ccc1O | ≥ 92

System: Human immunodeficiency virus 2
Assay: Antiviral activity against Human immunodeficiency virus type 2 (ISOLATE ROD) infected human MT4 cells assessed as inhibition of virus-induced cytopathicity
Type: functional, organism-based
Details: Human immunodeficiency virus 2, ISOLATE ROD

Structure (SMILES) | EC50 [µg/mL]
O=C(NNC(=O)c1ccc(Cl)cc1)c1ccncc1 | > 120
CC(Cl)C(=O)NNC(=O)c1ccncc1 (stereo not given) | > 77.5
O=C(N/N=C/c1c[nH]c2ccccc12)c1ccncc1 | > 95
COc1cc(/C=N/N(C(=O)c2ccccc2)C(=O)c2ccncc2)ccc1O | > 105
CCOc1cc(/C=N/N(C(=O)c2ccccc2)C(=O)c2ccncc2)ccc1O | > 92

System: Human immunodeficiency virus 1
Assay: Antiviral activity against Human immunodeficiency virus 1 IIIB infected human MT4 cells assessed as inhibition of virus-induced cytopathicity
Type: functional, organism-based
Details: not given

Structure (SMILES) | EC50 [µg/mL]
O=C(NNC(=O)c1ccc(Cl)cc1)c1ccncc1 | > 120
CC(Cl)C(=O)NNC(=O)c1ccncc1 (stereo not given) | > 77.5
O=C(N/N=C/c1c[nH]c2ccccc12)c1ccncc1 | > 95
COc1cc(/C=N/N(C(=O)c2ccccc2)C(=O)c2ccncc2)ccc1O | > 105
CCOc1cc(/C=N/N(C(=O)c2ccccc2)C(=O)c2ccncc2)ccc1O | > 92
